Experimental findings from patent US5179089A, “Isoquinoline compounds, compositions and use” (Chinoin Gyogyszer es Vegyeszeti Termekek Gyara Rt., priority 1990, dated 1993) are described below.

Where a name gives a salt, the structure may show the parent alone. Read-outs that look alike come from different tables or passages of the source.

Data set [1] has as its system histamine-induced constriction of isolated tracheal smooth muscle of guinea pig. Briefly: Inhibition of the histamine-induced constriction of isolated tracheal smooth muscle of guinea pig. The following applies: Cavia porcellus, 0.25 h, isolated guinea pig trachea, read-out: Inhibition of the histamine-induced constriction of isolated tracheal smooth muscle of guinea pig pd'2 (converted). The protocol:
I Study on the Effects Against Spasmogenic Mediators [modified method of J. C. […] The investigation on isolated organs were carried out as follows. OHF Lt/R9 guinea pigs of both sexes weighing 300 to 400 g each were anaesthetized by pentobarbital. Their trachea was removed and sectioned in the opposite side to the site of smooth muscle in longitudinal direction. Subsequently, a strip-like preparation was obtained by […] cutting. […] A rest load of 0.5 g was used. Several washings were carried out during the incubation period of 30 minutes. The change in the tension of the tracheal smooth muscle was followed by using an isometric Grass FT-03 type tensiometer sensor device. A washing was made following the cumulative dose series of the given mediator (e.g. histamine). After reaching the base line, by 15 minutes after administration of the given concentration of the inhibitory (antiasthmatic) substance to be tested, the next cumulative dose series of the mediator was administered. In the case of an inhibitory action, the strength of effect, following the second dose series of the mediator, was […] in comparison to that of the first (control) series. For characterization of strength of the competitive antagonistic effect the pA2 value was determined according to the method of […] A pd'2 value was calculated [J. M. Van Rossum: Arch. Int.

The test system of data set [2] is acetylcholine-induced constriction of the isolated tracheal smooth muscle of the guinea pig. Briefly: Inhibition of the acetylcholine-induced constriction of isolated tracheal smooth muscle of guinea pig. The conditions noted are these: Cavia porcellus, 0.25 h, isolated guinea pig trachea, read-out: pd'2 value against acetylcholine (converted). The protocol: (§1) I Study on the Effects Against Spasmogenic Mediators
[modified method of J. C. Castillo et al.: Exp. Ther. 90, 104 (1947)]
(§2) The investigation on isolated organs were carried out as follows.
(§3) OHF Lt/R9 guinea pigs of both sexes weighing 300 to 400 g each were anaesthetized by pentobarbital. Their trachea was removed and sectioned in the opposite side to the site of smooth muscle in longitudinal direction. Subsequently, a strip-like preparation was obtained by serrately cutting.
The organ was suspended in an organ bath containing 35 ml of Krebs solution at 37° C. bubbled through by carbogen gas (consisting of 95% of oxygen and 5% of carbon dioxide).
(§4) A rest load of 0.5 g was used. Several washings were carried out during the incubation period of 30 minutes.
(§5) The change in the tension of the tracheal smooth muscle was followed by using an isometric Grass FT-03 type tensiometer sensor device. A washing was made following the cumulative dose series of the given mediator (e.g. histamine). After reaching the base line, by 15 minutes after administration of the given concentration of the inhibitory (antiasthmatic) substance to be tested, the next cumulative dose series of the mediator was administered. In the case of an inhibitory action, the strength of effect, following the second dose series of the mediator, was […] in comparison to that of the first (control) series.
For characterization of strength of the competitive antagonistic effect the pA2 value was determined according to the method of Schield [Br. J. Pharmacol. 4, 277 (1949)]. A pd'2 value was calculated [J. M. Van Rossum: Arch. Int. Pharmacodyn 143, 317 (1963)] to characterize the noncompatitive antagonistic effectivity. The higher the pA2 or pd'2 value, respectively were, the higher was the antagonistic effect.

For data set [3], the system named is carrageenin-induced rat paw edema. Briefly: Carrageenin-induced rat paw edema test. In kind it is in vivo, rat (female CFY). The conditions noted are these: Rattus norvegicus, po, 50 mg/kg (p.o.), read-out: Percentage of the protective effect. The protocol:
Proc. Soc. Exp. Med. 111, 544 (1962)]. Female CFY rats weighing 100 to 120 g each were used after starvation for 24 hours. The inflammation was induced by injecting 0.1 ml of 1% carrageenin solution into the right hind paw plant. The severity of inflammation was determined by using an Ugo-Basile type plethysmometer. The measurement was carried out before and 1.5, 3 and 4.5 hours after induction of the inflammation. The animals were orally treated with the substance to be tested 1 hour before administration of carrageenin. The effect was expressed as percentage inhibition related to the control group.
Background: The carrageenan paw model is a standard test of acute inflammation.

In data set [4] the test system is active local anaphylactic reaction. Briefly: Effect influencing the active local anaphylactic reaction on rat. In kind it is in vivo, rat (female OFA). The following applies: oral dose of 50 mg/kg, 30th minute after induction. The protocol: 1) The effect influencing the active local anaphylactic reaction was measured according to the method of M. Koltay [Arch. Allergy App. Immun. 71, 181 (1983)].
Female OFA rats weighing 160 to 180 g each were sensitized by bovine serum albumin (BSA) adsorbed to 50 μg of Al(OH)3 gel together with the simultaneous administration of Bordatella pertussis vaccine.
The anaphylactic reaction was elicited by injecting 100 μg of BSA into the right hind paw plant in the 14th day.
The measurements were carried out before and 30 minutes after eliciting the reaction. The animals were orally treated with the compound to be tested 1 hour before the injection of BSA. The results were expressed as percentage inhibition compared to the control group (average %±S.E.M.).

In data set [5] the test system is dextran-induced rat paw edema. Briefly: Dextran-induced rat paw edema test. In kind it is in vivo. The following applies: 50 mg/kg (p.o.). The protocol:
3) Dextran-induced rat paw edema test The method of S. Gourvaisier and R. Ducrot [Arch. Int. Pharmacodyn. Ther. 102, 33 (1955)] was employed. The method described for the carrageenin edema test was followed, except that the measurements were carried out 30, 60, 90, 120 and 180 minutes after induction of the inflammation.

In data set [6] the test system is serotonin-induced constriction of the isolated tracheal smooth muscle of the guinea pig. Nature of the data set: Inhibition of the serotonin-induced constriction of isolated tracheal smooth muscle of guinea pig. The conditions noted are these: isolated guinea pig trachea; for pd'2 value against serotonin: 15 min. The protocol:
as §1
[modified method of J. C.
as §2, §3, §4, §5
A pd'2 value was calculated [J. M. Van Rossum: Arch. Int. […] The higher the pA2 or pd'2 value, respectively were, the higher was the antagonistic effect.

Data set [7] is described as follows: LD50 on rat. The following applies: in vivo, iv.
Data set [8] can be described thus: LD50 on mouse. The following applies: in vivo.

What is called LD50 is the dose expected to kill half of the subjects tested.

`CCOc1cc2c(cc1OCC)C(=C(C#N)SCC(CN1CCOCC1)OC(=O)c1ccccc1)NCC2` (stereo not shown) [Example 26, 2-(6,7-diethoxy-1,2,3,4-tetrahydro-1-isoquinolinylidene)-2-[2-benzoyloxy-3-(4-morpholinyl)-propyl]mercaptoacetonitrile hydrochloride]: the IC50 in data set [1] is 8710 nM; in data set [2], 15.5 µM.

`COc1cc2c(cc1OC)C(=C(C#N)SCC(CN1CCOCC1)OC(=O)c1ccccc1)NCC2` (stereo not shown) [Example 25, 2-(6,7-dimethoxy-1,2,3,4-tetrahydro-1-isoquinolinylidene)-2-[2-benzoyloxy-3-(4-morpholinyl)propyl]mercaptoacetonitrile]: the figures for the IC50 in data set [1] and in data set [2] were 417 nM and 15.5 µM, respectively. Further, the values for the change in vivo at 50 mg/kg in data set [3] (1.5 hours), in data set [3] (3 hours) and in data set [3] (4.5 hours) were -26.6%, -17.7% and -16%, respectively.

Consider `COc1cc2c(cc1OC)C(=C(C#N)SCC(O)CN1CCOCC1)NCC2` (stereo not shown) [Example 17, 2-(6,7-dimethoxy-1,2,3,4-tetrahydro-1-isoquinolinylidene)-2-[2-hydroxy-3-(4-morpholinyl)propyl]mercaptoacetonitrile hydrochloride], for which, in data set [1], the IC50 was 1820 nM. Also, the “Percentage of inhibition of the active local anaphylactic reaction” value in data set [4] is -53.4%. Also, the change in vivo at 50 mg/kg is -4.2% in data set [3] (1.5 hours), 0% in data set [3] (3 hours) and 0% in data set [3] (4.5 hours). Besides, the Percentage of inhibition in data set [5] (30 minutes) was 27.5%; in data set [5] (60 minutes), 32.5%; in data set [5] (90 minutes), 32.1%; in data set [5] (120 minutes), 32.4%; in data set [5] (180 minutes) it was 20.3%.

On to `Cn1c(=O)c2[nH]cnc2n(C)c1=O` [theophylline, reference compound], for which the IC50 in data set [1] is 1580 nM; in data set [2], 0.372 µM. Moreover, the “pd'2 value against serotonin” value in data set [6] was found to be 6.16; in data set [6] (listed as Theophylline), 6.49.

For `CCOc1cc2c(cc1OCC)C(=C(C#N)SCC(CN1CCOCC1)OC(C)=O)NCC2` (stereo not shown) [Example 24, 2-(6,7-diethoxy-1,2,3,4-tetrahydro-1-isoquinolinylidene)-2-[2-acetoxy-3-(4-morpholinyl)propyl]mercaptoacetonitrile], the IC50 is 1170 nM in data set [1]; 8.91 µM in data set [6] (Cavia porcellus, 0.25 h, read-out: pd'2 value against serotonin (converted)); 9.55 µM in data set [2]. Further, the change in vivo at 50 mg/kg is -25.8% in data set [3] (1.5 hours), -20.3% in data set [3] (3 hours) and -20% in data set [3] (4.5 hours).

In the case of `CCOc1cc2c(cc1OCC)C(=C(C#N)SCC(O)CN1CCOCC1)NCC2` (stereo not shown) [Example 18, 2-(6,7-diethoxy-1,2,3,4-tetrahydro-1-isoquinolinylidene)-2-[2-hydroxy-3-(4-morpholinyl)propyl]mercaptoacetonitrile], the IC50 in data set [1] is 123 nM. In addition, the “Percentage of inhibition of the active local anaphylactic reaction” value in data set [4] is recorded as -31%. The change in vivo at 50 mg/kg in data set [3] (1.5 hours) was -35.8%; in data set [3] (3 hours), -29.3%; in data set [3] (4.5 hours), -28.4%. For the same molecule, the Percentage of inhibition in data set [5] (30 minutes) is reported as 29.8%; in data set [5] (60 minutes), 38.7%; in data set [5] (90 minutes) it was 30.4%; in data set [5] (120 minutes) it was 26.3%; in data set [5] (180 minutes) it was 28.4%. The LD50 in data set [7] (female rat) turned out to be 133 mg/kg; in data set [7] (male rat), 91.4 mg/kg; in data set [8] (iv, female mouse, read-out: LD50 i.v.), 150 mg/kg; in data set [8] (iv, male mouse, read-out: LD50 i.v.), 166 mg/kg; in data set [8] (po, female mouse, read-out: LD50 p.o.) it was 1030 mg/kg; in data set [8] (po, male mouse, read-out: LD50 p.o.) it was 1200 mg/kg.
